Test results from patent US8247211B2, “Glycopeptide antibiotics” (American Cyanamid Company, priority 2001, dated 2012).
In brackets after ≈: the same amount, converted by molar mass.

Columns and labels:
Experiment in all cases: In vitro antibacterial evaluation: minimum inhibitory concentration (MIC), broth dilution method
Format in all cases: cell-based
Enterococcus sp. = settings: broth dilution, 5×10^5 CFU/mL, 18 hours at 35° C.
In short: (§1)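 Inoculum: 5×10^5 CFU/mL. Range: 64-0.06 μg/mL. Medium: Muller-Hinton II […]; NCCLS M7-A2 broth dilution. Endpoint: lowest concentration inhibiting growth. Strains include methicillin-, penicillin- and/or vancomycin-resistant clinical isolates.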

Escherichia coli = settings: 5×10^5 CFU/mL, 18 hours at 35° C.
In short: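 MIC read as lowest drug level preventing visible growth. Organisms at 5×10^5 CFU/mL were exposed to a 64-0.06 μg/mL dilution series in Muller-Hinton II […] following NCCLS broth dilution standard M7-A2.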

Staphylococcus sp. = settings: for MIC Staphylococcus aureus (ATCC 29213): strain ATCC 29213; for MIC Staphylococcus aureus (GC 1131): strain GC 1131; for MIC Staphylococcus aureus (GC 4541): strain GC 4541; for MIC Staphylococcus aureus (GC 4542): strain GC 4542; for MIC Staphylococcus aureus (GC 4544): strain GC 4544; for MIC Staphylococcus aureus (GC 4545): strain GC 4545; for MIC Coagulase Negative Staphylococcus (ID-3941): strain ID-3941; for MIC Staphylococcus aureus (GC 3051): strain GC 3051; for MIC Staphylococcus aureus (GC 3053): strain GC 3053
In short: as §1

Streptococcus sp. = settings: broth dilution, 5×10^5 CFU/mL, 18 hours at 35° C.
In short: as §1

[1] = broth dilution, 18 hours at 35° C.
[2] = strain GC 4543, broth dilution, 18 hours at 35° C.
[3] = strain GC 4546, broth dilution, 18 hours at 35° C.
[4] = strain GC 4547, broth dilution, 18 hours at 35° C.
[5] = strain GC 4548, broth dilution, 18 hours at 35° C.
[6] = strain GC 4549, broth dilution, 18 hours at 35° C.
[7] = strain GC 4551, broth dilution, 18 hours at 35° C.
[8] = broth dilution, 5×10^5 CFU/mL, 18 hours at 35° C.

Compound: CCCCCCCC1OCC2OC(OC3C(CO)OC(Oc4ccc(CC5NC(=O)C(C(C)c6ccccc6)NC(=O)CNC(=O)C(CO)NC(=O)C(C(O)C6CNC(=N)N6C6OC(CO)C(O)C(O)C6O)NC(=O)C(C(O)C6CNC(=N)N6)NC5=O)cc4)C(O)C3O)C(O)C(O)C2O1 (stereo not drawn) [Example 109, Cyclo[glycyl-β-methylphenylalanyl-O-[4-O-(4,6-O-octylidenehexopyranosyl)hexopyranosyl]-tyrosyl-3-(2-iminoimidazoliclin-4-yl)seryl-3-(3-hexopyranosyl-2-iminoimidazolidin-4-yl)-serylseryl]]
- MIC Enterococccus avium (GC 4558) (Enterococcus sp.): 2 µg/mL (≈ 1.42 µM)
- MIC Enterococccus faecalis (ATCC 29212) (Enterococcus sp.): 2 µg/mL (≈ 1.42 µM)
- MIC Enterococccus faecalis (GC 4552) (Enterococcus sp.): 2 µg/mL (≈ 1.42 µM)
- MIC Enterococccus faecalis (GC 4553) (Enterococcus sp.): 2 µg/mL (≈ 1.42 µM)
- MIC Enterococccus faecalis (GC 4554) (Enterococcus sp.): 2 µg/mL (≈ 1.42 µM)
- MIC Enterococccus faecium (GC 2243) (Enterococcus sp.): 1 µg/mL (≈ 0.712 µM)
- MIC Enterococccus faecium (GC 4556) (Enterococcus sp.): 2 µg/mL (≈ 1.42 µM)
- MIC Enterococccus faecium (GC 4557) (Enterococcus sp.): 1 µg/mL (≈ 0.712 µM)
- MIC Enterococcus faecalis (GC 2242) (Enterococcus sp.): 2 µg/mL (≈ 1.42 µM)
- MIC Escherichia coli (ATCC 25922) (Escherichia coli): 16 µg/mL (≈ 11.4 µM)
- MIC Staphylococcus aureus (ATCC 29213) (Staphylococcus sp.): 1 µg/mL (≈ 0.712 µM)
- MIC Staphylococcus aureus (ATCC 29213) (Staphylococcus sp.; [1]): 1 µg/mL (≈ 0.712 µM)
- MIC Staphylococcus aureus (GC 1131) (Staphylococcus sp.): 1 µg/mL (≈ 0.712 µM)
- MIC Staphylococcus aureus (GC 1131) (Staphylococcus sp.; [1]): 1 µg/mL (≈ 0.712 µM)
- MIC Staphylococcus aureus (GC 4541) (Staphylococcus sp.): 1 µg/mL (≈ 0.712 µM)
- MIC Staphylococcus aureus (GC 4541) (Staphylococcus sp.; [1]): 1 µg/mL (≈ 0.712 µM)
- MIC Staphylococcus aureus (GC 4542) (Staphylococcus sp.): 1 µg/mL (≈ 0.712 µM)
- MIC Staphylococcus aureus (GC 4542) (Staphylococcus sp.; [1]): 1 µg/mL (≈ 0.712 µM)
- MIC Staphylococcus aureus-SMITH (GC 4543) (Staphylococcus sp.; strain GC 4543, 18 hours at 35° C.): 1 µg/mL (≈ 0.712 µM)
- MIC Staphylococcus aureus-SMITH (GC 4543) (Staphylococcus sp.; [2]): 1 µg/mL (≈ 0.712 µM)
- MIC Staphylococcus aureus (GC 4544) (Staphylococcus sp.): 1 µg/mL (≈ 0.712 µM)
- MIC Staphylococcus aureus (GC 4544) (Staphylococcus sp.; [1]): 1 µg/mL (≈ 0.712 µM)
- MIC Staphylococcus aureus (GC 4545) (Staphylococcus sp.): 1 µg/mL (≈ 0.712 µM)
- MIC Staphylococcus aureus (GC 4545) (Staphylococcus sp.; [1]): 1 µg/mL (≈ 0.712 µM)
- MIC Staphylococcus haemolyticus (GC 4546) (Staphylococcus sp.; strain GC 4546): 1 µg/mL (≈ 0.712 µM)
- MIC Staphylococcus haemolyticus (GC 4546) (Staphylococcus sp.; [3]): 1 µg/mL (≈ 0.712 µM)
- MIC Coagulase Negative Staphylococcus (GC 4547) (Staphylococcus sp.; strain GC 4547): 1 µg/mL (≈ 0.712 µM)
- MIC Coagulase Negative Staphylococcus (GC 4547) (Staphylococcus sp.; [4]): 1 µg/mL (≈ 0.712 µM)
- MIC Coagulase Negative Staphylococcus (GC 4548) (Staphylococcus sp.; strain GC 4548): <0.5 µg/mL
- MIC Coagulase Negative Staphylococcus (GC 4548) (Staphylococcus sp.; [5]): <0.5 µg/mL
- MIC Coagulase Negative Staphylococcus (GC 4549) (Staphylococcus sp.; strain GC 4549): 1 µg/mL (≈ 0.712 µM)
- MIC Coagulase Negative Staphylococcus (GC 4549) (Staphylococcus sp.; [6]): 1 µg/mL (≈ 0.712 µM)
- MIC Coagulase Negative Staphylococcus (GC 4551) (Staphylococcus sp.; strain GC 4551): 1 µg/mL (≈ 0.712 µM)
- MIC Coagulase Negative Staphylococcus (GC 4551) (Staphylococcus sp.; [7]): 1 µg/mL (≈ 0.712 µM)
- MIC Coagulase Negative Staphylococcus (ID-3941) (Staphylococcus sp.): 1 µg/mL (≈ 0.712 µM)
- MIC Coagulase Negative Staphylococcus (ID-3941) (Staphylococcus sp.; [1]): 1 µg/mL (≈ 0.712 µM)
- MIC Streptococcus agalactiae (GC 4564) (Streptococcus sp.): <0.5 µg/mL
- MIC Streptococcus pneumoniae (GC 4565) (Streptococcus sp.): <0.5 µg/mL
- MIC Streptococcus pyogenes (ID-3187) (Streptococcus sp.): <0.5 µg/mL

Compound: CC(c1ccccc1)C1NC(=O)CNC(=O)C(CO)NC(=O)C(C(O)C2CNC(=N)N2C2OC(CO)C(O)C(O)C2O)NC(=O)C(C(O)C2CNC(=N)N2)NC(=O)C(Cc2ccc(OC3OC(CO)C(OC4OC5COC(c6cccc(O)c6)OC5C(O)C4O)C(O)C3O)cc2)NC1=O (stereo not drawn) [Example 136, Cyclo[glycyl-β-methylphenylalanyl-O-[4-O-[4,6-O-(3-hydroxybenzylidene)hexopyranosyl]-hexopyranosyl]tyrosyl-3-(2-iminoimidazolidin-4-yl)seryl-3-(3-hexopyranosyl-2-iminoimidazoliclin-4-yl)serylseryl]]
- MIC Enterococccus avium (GC 4558) (Enterococcus sp.): 64 µg/mL (≈ 45.7 µM)
- MIC Enterococccus faecalis (ATCC 29212) (Enterococcus sp.): >64 µg/mL
- MIC Enterococccus faecalis (GC 2691) (Enterococcus sp.): >64 µg/mL
- MIC Enterococccus faecalis (GC 3059) (Enterococcus sp.): >64 µg/mL
- MIC Enterococccus faecalis (GC 4552) (Enterococcus sp.): >64 µg/mL
- MIC Enterococccus faecalis (GC 4553) (Enterococcus sp.): >64 µg/mL
- MIC Enterococccus faecalis (GC 4554) (Enterococcus sp.): >64 µg/mL
- MIC Enterococccus faecalis (GC 6189) (Enterococcus sp.): 64 µg/mL (≈ 45.7 µM)
- MIC Enterococccus faecium (GC 2243) (Enterococcus sp.): >64 µg/mL
- MIC Enterococccus faecium (GC 4556) (Enterococcus sp.): 64 µg/mL (≈ 45.7 µM)
- MIC Enterococccus faecium (GC 4557) (Enterococcus sp.): 8 µg/mL (≈ 5.72 µM)
- MIC Enterococcus faecalis (GC 2242) (Enterococcus sp.): 64 µg/mL (≈ 45.7 µM)
- MIC Escherichia coli (ATCC 25922) (Escherichia coli): >64 µg/mL
- MIC Escherichia coli (GC 4559) (Escherichia coli): >64 µg/mL
- MIC Escherichia coli (GC 4560) (Escherichia coli): 4 µg/mL (≈ 2.86 µM)
- MIC Coagulase Negative Staphylococcus (GC 4547) (Staphylococcus sp.; [8]): 8 µg/mL (≈ 5.72 µM)
- MIC Coagulase Negative Staphylococcus (GC 4548) (Staphylococcus sp.; [8]): 8 µg/mL (≈ 5.72 µM)
- MIC Coagulase Negative Staphylococcus (GC 4549) (Staphylococcus sp.; [8]): 4 µg/mL (≈ 2.86 µM)
- MIC Coagulase Negative Staphylococcus (GC 4551) (Staphylococcus sp.; [8]): 32 µg/mL (≈ 22.9 µM)
- MIC Coagulase Negative Staphylococcus (GC 6257) (Staphylococcus sp.; [8]): 4 µg/mL (≈ 2.86 µM)
- MIC Staphylococcus aureus-SMITH (GC 4543) (Staphylococcus sp.; [8]): 16 µg/mL (≈ 11.4 µM)
- MIC Staphylococcus haemolyticus (GC 4546) (Staphylococcus sp.; [8]): 16 µg/mL (≈ 11.4 µM)
- MIC Staphylococcus aureus (ATCC 29213) (Staphylococcus sp.): 16 µg/mL (≈ 11.4 µM)
- MIC Staphylococcus aureus (ATCC 29213) (Staphylococcus sp.; [1]): 16 µg/mL (≈ 11.4 µM)
- MIC Staphylococcus aureus (GC 1131) (Staphylococcus sp.): 16 µg/mL (≈ 11.4 µM)
- MIC Staphylococcus aureus (GC 1131) (Staphylococcus sp.; [1]): 16 µg/mL (≈ 11.4 µM)
- MIC Staphylococcus aureus (GC 3051) (Staphylococcus sp.): 16 µg/mL (≈ 11.4 µM)
- MIC Staphylococcus aureus (GC 3051) (Staphylococcus sp.; [1]): 16 µg/mL (≈ 11.4 µM)
- MIC Staphylococcus aureus (GC 3053) (Staphylococcus sp.): 32 µg/mL (≈ 22.9 µM)
- MIC Staphylococcus aureus (GC 3053) (Staphylococcus sp.; [1]): 32 µg/mL (≈ 22.9 µM)
- MIC Staphylococcus aureus (GC 4541) (Staphylococcus sp.): 8 µg/mL (≈ 5.72 µM)
- MIC Staphylococcus aureus (GC 4541) (Staphylococcus sp.; [1]): 8 µg/mL (≈ 5.72 µM)
- MIC Staphylococcus aureus (GC 4542) (Staphylococcus sp.): 16 µg/mL (≈ 11.4 µM)
- MIC Staphylococcus aureus (GC 4542) (Staphylococcus sp.; [1]): 16 µg/mL (≈ 11.4 µM)
- MIC Staphylococcus aureus-SMITH (GC 4543) (Staphylococcus sp.; [2]): 16 µg/mL (≈ 11.4 µM)
- MIC Staphylococcus aureus (GC 4544) (Staphylococcus sp.): 16 µg/mL (≈ 11.4 µM)
- MIC Staphylococcus aureus (GC 4544) (Staphylococcus sp.; [1]): 16 µg/mL (≈ 11.4 µM)
- MIC Staphylococcus aureus (GC 4545) (Staphylococcus sp.): 16 µg/mL (≈ 11.4 µM)
- MIC Staphylococcus aureus (GC 4545) (Staphylococcus sp.; [1]): 16 µg/mL (≈ 11.4 µM)
- MIC Staphylococcus haemolyticus (GC 4546) (Staphylococcus sp.; [3]): 16 µg/mL (≈ 11.4 µM)
- MIC Coagulase Negative Staphylococcus (GC 4547) (Staphylococcus sp.; [4]): 8 µg/mL (≈ 5.72 µM)
- MIC Coagulase Negative Staphylococcus (GC 4548) (Staphylococcus sp.; [5]): 8 µg/mL (≈ 5.72 µM)
- MIC Coagulase Negative Staphylococcus (GC 4549) (Staphylococcus sp.; [6]): 4 µg/mL (≈ 2.86 µM)
- MIC Coagulase Negative Staphylococcus (GC 4551) (Staphylococcus sp.; [7]): 32 µg/mL (≈ 22.9 µM)
- MIC Coagulase Negative Staphylococcus (GC 6257) (Staphylococcus sp.; strain GC 6257, broth dilution, 18 hours at 35° C.): 4 µg/mL (≈ 2.86 µM)
- MIC Streptococcus agalactiae (GC 4564) (Streptococcus sp.): 8 µg/mL (≈ 5.72 µM)
- MIC Streptococcus pneumoniae (GC 1894) (Streptococcus sp.): 1 µg/mL (≈ 0.715 µM)
- MIC Streptococcus pneumoniae (GC 4565) (Streptococcus sp.): 4 µg/mL (≈ 2.86 µM)
- MIC Streptococcus pneumonine (ATCC 6301) (Streptococcus sp.): 2 µg/mL (≈ 1.43 µM)
- MIC Streptococcus pyogenes (GC 4563) (Streptococcus sp.): 8 µg/mL (≈ 5.72 µM)
